Type in all cases: cell-based
Experiment [1] deals with T1, GHSR-1a (HEK293/GHSR1a cell line) (Homo sapiens, UniProt Q92847).
T1 construct: expressed in transfected cells; host or cells: HEK293/GHSR1a cell line
The experiment is described as follows: Ghrelin agonist potency (EC50) with calcium FLIPR assay. The settings on record: HEK293/GHSR1a, read-out: Activity EC50/EMax: EC50 (ghrelin agonist potency). In a few lines:
(§1)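 The cells were plated a day ahead and loaded with a calcium-sensitive dye. Test compound was then added and incubated 15 min, followed by ghrelin. Antagonist potency was calculated from inhibition of the response to 10 nM ghrelin, and agonist potency from the calcium rise caused by compound alone.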

In experiment [2] the target is T1, GHSR-1a (HEK293/GHSR1a cell line). The experiment is described as follows: Ghrelin antagonist potency (IC50) with calcium FLIPR assay, ghrelin 10 nM. The settings on record: HEK293/GHSR1a, ghrelin 10 nM, read-out: Activity IC50 (ghrelin antagonist potency). In a few lines: as §1
Experiment [3] addresses T2, recombinant human ghrelin receptor (HEK293/GRLN) (Homo sapiens, UniProt Q92847).
T2 construct: expressed in transfected cells
In words: Ghrelin inverse agonist potency (EC50) with IP-1 (IP-One HTRF) assay. The settings on record: IP-1 assay, HEK293/GRLN; read-out: Activity EC50 (ghrelin inverse agonist potency). An outline of the steps:
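IP-1 accumulation was measured by HTRF (IP1-d2/Tb-cryptate, 620/665 nm read after 1 hour at room temperature) following 1 hour of compound treatment at 37° C. Cells were HEK293 stably expressing human ghrelin receptor, plated a day earlier on Matrigel. Inverse agonist potency was reported as EC50.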
(In general: Time-resolved FRET reads energy transfer from a long-lived donor to a nearby acceptor.)

A value given as a limit tells only on which side of the number the result lay.

T2 sequence (Q92847 whole entry): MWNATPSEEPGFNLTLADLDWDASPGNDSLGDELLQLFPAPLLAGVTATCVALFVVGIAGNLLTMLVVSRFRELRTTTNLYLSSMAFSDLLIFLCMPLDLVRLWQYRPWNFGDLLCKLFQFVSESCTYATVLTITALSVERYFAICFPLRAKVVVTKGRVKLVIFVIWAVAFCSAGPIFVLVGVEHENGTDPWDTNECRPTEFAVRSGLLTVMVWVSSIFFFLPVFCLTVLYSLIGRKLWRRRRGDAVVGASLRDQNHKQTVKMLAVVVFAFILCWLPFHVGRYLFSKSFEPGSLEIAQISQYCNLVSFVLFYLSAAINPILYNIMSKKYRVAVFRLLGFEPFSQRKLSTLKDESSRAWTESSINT
T1 sequence (Q92847 whole entry): as above

On to `CCN(CC)C1CCC(CS(=O)(=O)c2ccc(NC(=O)NC(C)c3cccc(Cl)c3Cl)cc2)CC1` (stereo not drawn) [H1372, 1-(1-(2,3-dichlorophenyl)ethyl)-3-(4-(((4-(diethylamino)cyclohexyl)methyl)sulfonyl)phenyl)urea], for which the EC50 in experiment [1] is greater than 30000 nM; in experiment [3], 936 nM. Moreover, the half-inhibitory concentration (IC50) (as a rule, the point on the concentration scale where inhibition reaches its midpoint) in experiment [2] turned out to be 18200 nM.

For `CC(NC(=O)Nc1ccc(S(=O)(=O)CC2CCCN(C(C)C)C2)cc1)c1cccc(Cl)c1Cl` (stereo not drawn) [H1376, 1-(1-(2,3-dichlorophenyl)ethyl)-3-(4-(((1-isopropylpiperidin-3-yl)methyl)sulfonyl)phenyl)urea], the EC50 was greater than 30000 nM in experiment [1] and 631 nM in experiment [3]. Also, the half-maximal inhibitory concentration (IC50) in experiment [2] was determined as 6890 nM.

As to `CC(NC(=O)N(C)c1ccc(S(=O)(=O)Cc2ccc3c(c2)CN(C)C3)cc1)c1ccccc1` (stereo not drawn) [H1377, 1-methyl-1-(4-(((2-methylisoindolin-5-yl)methyl)sulfonyl)phenyl)-3-(1-phenylethyl)urea], the values for the EC50 in experiment [1] and in experiment [3] were greater than 30000 nM and 384 nM, respectively. Further, in experiment [2], the IC50 is 5520 nM.

Take `COc1cc2c(cc1CS(=O)(=O)c1ccc(NC(=O)NC(C)c3cccc(Cl)c3Cl)cc1)CCNC2` (stereo not drawn) [H1392, 1-(1-(2,3-dichlorophenyl)ethyl)-3-(4-(((7-methoxy-1,2,3,4-tetrahydroisoquinolin-6-yl)methyl)sulfonyl)phenyl)urea]: the EC50 in experiment [1] is greater than 30000 nM; in experiment [3] it was 52.6 nM. Besides, the IC50 in experiment [2] was determined as 98.8 nM.

For `CC(NC(=O)Nc1ccc(S(=O)(=O)Cc2cc3c(c(C(F)(F)F)c2)CNCC3)cc1F)c1cccc(Cl)c1Cl` (stereo not drawn) [H1400, 1-(1-(2,3-dichlorophenyl)ethyl)-3-(2-fluoro-4-(((8-(trifluoromethyl)-1,2,3,4-tetrahydroisoquinolin-6-yl)methyl)sulfonyl)phenyl)urea], the EC50 in experiment [1] was greater than 30000 nM; in experiment [3], 15.4 nM. In addition, the concentration for half-maximal inhibition (IC50) in experiment [2] worked out at 70.5 nM.

Regarding `CC(NC(=O)Nc1ccc(S(=O)(=O)Cc2cc(Cl)c3c(c2)CNC3)cc1)c1ccccc1` (stereo not drawn) [H1405, 1-(4-(((7-chloroisoindolin-5-yl)methyl)sulfonyl)phenyl)-3-(1-phenylethyl)urea], the results for the EC50 in experiment [1] and in experiment [3] were greater than 30000 nM and 90 nM, respectively. Besides, in experiment [2], the IC50 is 1860 nM.

As for `CC(NC(=O)Nc1ccc(S(=O)(=O)Cc2ccc3c(c2)CNC3)cn1)c1ccccc1` (stereo not drawn) [H1408, 1-(5-((isoindolin-5-ylmethyl)sulfonyl)pyridin-2-yl)-3-(1-phenylethyl)urea], the values for the EC50 in experiment [1] and in experiment [3] were greater than 30000 nM and 36 nM, respectively. The IC50 in experiment [2] was determined as 162 nM.

Turning to `CC(c1ccccc1)N(C)C(=O)Nc1ccc(S(=O)(=O)Cc2ccc3c(c2F)CNC3)cc1` (stereo not drawn) [H1409, 3-(4-(((4-fluoroisoindolin-5-yl)methyl)sulfonyl)phenyl)-1-methyl-1-(1-phenylethyl)urea], the EC50 was greater than 30000 nM in experiment [1] and 74.5 nM in experiment [3]. Also, the IC50 in experiment [2] came out at 282 nM.

On to `CC(NC(=O)Nc1ccc(S(=O)(=O)Cc2ccc3c(c2)CNC3)cc1F)c1c(F)cccc1F` (stereo not drawn) [H1411, 1-(1-(2,6-difluorophenyl)ethyl)-3-(2-fluoro-4-((isoindolin-5-ylmethyl)sulfonyl)phenyl)urea], for which the EC50 in experiment [1] is greater than 30000 nM; in experiment [3], 17.8 nM. The IC50 in experiment [2] amounted to 124 nM.

Consider `COc1cc(S(=O)(=O)Cc2ccc3c(c2)CCNC3)ccc1NC(=O)N(C)C(C)c1ccccc1` (stereo not drawn) [H1413, 3-(2-methoxy-4-(((1,2,3,4-tetrahydroisoquinolin-6-yl)methyl)sulfonyl)phenyl)-1-methyl-1-(1-phenylethyl)urea], for which the figures for the EC50 in experiment [1] and in experiment [3] were greater than 30000 nM and 225 nM, respectively. Further, the IC50 in experiment [2] worked out at 681 nM.

Regarding `CC(c1ccccc1)N(C)C(=O)Nc1ccc(S(=O)(=O)Cc2ccc3c(c2)CCNC3)cc1F` (stereo not drawn) [H1414, 3-(2-fluoro-4-(((1,2,3,4-tetrahydroisoquinolin-6-yl)methyl)sulfonyl)phenyl)-1-methyl-1-(1-phenylethyl)urea], the EC50 in experiment [1] was greater than 30000 nM; in experiment [3], 589 nM. Moreover, in experiment [2], the IC50 is 2090 nM.

As for `CC1Cc2cc(CS(=O)(=O)c3ccc(NC(=O)N(C)Cc4ccccc4)cc3)ccc2CN1` (stereo not drawn) [H1416, 1-benzyl-1-methyl-3-(4-(((3-methyl-1,2,3,4-tetrahydroisoquinolin-6-yl)methyl)sulfonyl)phenyl)urea], the EC50 in experiment [1] is greater than 30000 nM; in experiment [3], 26.6 nM. Also, the half-inhibitory concentration (IC50) in experiment [2] is 1040 nM.

Turning to `CC1c2ccccc2CCN1C(=O)Nc1ccc(S(=O)(=O)Cc2ccc3c(c2)CN(C)C3)cc1` (stereo not drawn) [H1418, 1-methyl-N-(4-(((2-methylisoindolin-5-yl)methyl)sulfonyl)phenyl)-3,4-dihydroisoquinoline-2(1H)-carboxamide], the EC50 in experiment [1] is greater than 30000 nM; in experiment [3], 69.5 nM. Further, the IC50 in experiment [2] amounted to 2700 nM.

For `COc1cc(S(=O)(=O)Cc2ccc3c(c2)CCN(C)C3)ccc1NC(=O)N[C@H](C)c1ccc(OC)c(Cl)c1Cl` [H1422, (R)-1-(1-(2,3-dichloro-4-methoxyphenyl)ethyl)-3-(2-methoxy-4-(((2-methyl-1,2,3,4-tetrahydroisoquinolin-6-yl)methyl)sulfonyl)phenyl)urea], the EC50 was greater than 30000 nM in experiment [1] and 0.7 nM in experiment [3]. In addition, the half-maximal inhibitory concentration (IC50) in experiment [2] was found to be 29.4 nM.

For the molecule `COc1ccc([C@@H](C)NC(=O)Nc2ccc(S(=O)(=O)Cc3ccc4c(c3)CCN(C)C4)cc2F)c(Cl)c1Cl` [H1423, (R)-1-(1-(2,3-dichloro-4-methoxyphenyl)ethyl)-3-(2-fluoro-4-(((2-methyl-1,2,3,4-tetrahydroisoquinolin-6-yl)methyl)sulfonyl)phenyl)urea], the results for the EC50 in experiment [1] and in experiment [3] were greater than 30000 nM and 3.77 nM, respectively. For the same molecule, the IC50 in experiment [2] was 114 nM.

Regarding `COc1cc(S(=O)(=O)Cc2cc(F)c3c(c2)CCNC3)ccc1NC(=O)NC(C)c1cccc(Cl)c1Cl` (stereo not drawn) [H1424, 1-(1-(2,3-dichlorophenyl)ethyl)-3-(4-(((8-fluoro-1,2,3,4-tetrahydroisoquinolin-6-yl)methyl)sulfonyl)-2-methoxyphenyl)urea], the EC50 in experiment [1] was greater than 30000 nM; in experiment [3], 8.9 nM. Besides, in experiment [2], the half-maximal inhibitory concentration (IC50) is 15.4 nM.

Turning to `CC(NC(=O)Nc1ccc(S(=O)(=O)Cc2ccc(CO)cc2)cc1)c1cccc(Cl)c1Cl` (stereo not drawn) [H1430, 1-(1-(2,3-dichlorophenyl)ethyl)-3-(4-((4-(hydroxymethyl)benzyl)sulfonyl)phenyl)urea], the EC50 in experiment [1] was greater than 30000 nM; in experiment [3], 56.4 nM. Also, the IC50 in experiment [2] stood at 2470 nM.

On to `COc1cc(S(=O)(=O)Cc2ccc(CO)cc2)ccc1NC(=O)NC(C)c1c(F)cccc1F` (stereo not drawn) [H1432, 1-(1-(2,6-difluorophenyl)ethyl)-3-(4-((4-(hydroxymethyl)benzyl)sulfonyl)-2-methoxyphenyl)urea], for which the values for the EC50 in experiment [1] and in experiment [3] were greater than 30000 nM and 367 nM, respectively. Also, the IC50 in experiment [2] came out at 5500 nM.

As to `COc1cc(S(=O)(=O)Cc2ccc(CO)cc2)ccc1NC(=O)NC(C)c1ccccc1` (stereo not drawn) [H1433, 1-(4-((4-(hydroxymethyl)benzyl)sulfonyl)-2-methoxyphenyl)-3-(1-phenylethyl)urea], the results for the EC50 in experiment [1] and in experiment [3] were greater than 30000 nM and 473 nM, respectively. The IC50 in experiment [2] is 3120 nM.

Turning to `COc1cc(S(=O)(=O)Cc2ccc(CO)cc2)ccc1NC(=O)NC(C)c1cccc(Cl)c1Cl` (stereo not drawn) [H1434, 1-(1-(2,3-dichlorophenyl)ethyl)-3-(4-((4-(hydroxymethyl)benzyl)sulfonyl)-2-methoxyphenyl)urea], the EC50 in experiment [1] was greater than 30000 nM; in experiment [3], 61.2 nM. Besides, in experiment [2], the half-maximal inhibitory concentration (IC50) is 857 nM.

On to `COc1cc(S(=O)(=O)Cc2ccc(CO)cc2)ccc1NC(=O)NC(C)c1ccc(OC)c(Cl)c1Cl` (stereo not drawn) [H1435, 1-(1-(2,3-dichloro-4-methoxyphenyl)ethyl)-3-(4-((4-(hydroxymethyl)benzyl)sulfonyl)-2-methoxyphenyl)urea], for which the values for the EC50 in experiment [1] and in experiment [3] were greater than 30000 nM and greater than 10000 nM, respectively. In experiment [2], the IC50 was greater than 30000 nM.

In the case of `COc1cc(S(=O)(=O)Cc2ccc3c(c2)CCN(C)C3)ccc1NC(=O)NC(C)c1c(F)cccc1F` (stereo not drawn) [H1436, 1-(1-(2,6-difluorophenyl)ethyl)-3-(2-methoxy-4-(((2-methyl-1,2,3,4-tetrahydroisoquinolin-6-yl)methyl)sulfonyl)phenyl)urea], the figures for the EC50 in experiment [1] and in experiment [3] were greater than 30000 nM and 4.3 nM, respectively. Also, in experiment [2], the IC50 was determined as 19.5 nM.

Regarding `COc1cc(S(=O)(=O)Cc2ccc3c(c2)CN(C)C3)ccc1NC(=O)NC(C)c1c(F)cccc1F` (stereo not drawn) [H1437, 1-(1-(2,6-difluorophenyl)ethyl)-3-(2-methoxy-4-(((2-methylisoindolin-5-yl)methyl)sulfonyl)phenyl)urea], the results for the EC50 in experiment [1] and in experiment [3] were greater than 30000 nM and 10 nM, respectively. Moreover, the half-inhibitory concentration (IC50) in experiment [2] turned out to be 24.3 nM.

Take `COc1cc(S(=O)(=O)Cc2ccc3c(c2)CN(C)C3)ccc1NC(=O)NC(C)c1ccccc1OC` (stereo not drawn) [H1438, 1-(2-methoxy-4-(((2-methylisoindolin-5-yl)methyl)sulfonyl)phenyl)-3-(1-(2-methoxyphenyl)ethyl)urea]: the results for the EC50 in experiment [1] and in experiment [3] were greater than 30000 nM and 2.76 nM, respectively. Also, in experiment [2], the IC50 was found to be 12.6 nM.

Turning to `COc1cc(S(=O)(=O)Cc2cc3c(cc2F)CNCC3)ccc1NC(=O)NC(C)c1cccc(Cl)c1Cl` (stereo not drawn) [H1439, 1-(1-(2,3-dichlorophenyl)ethyl)-3-(4-(((7-fluoro-1,2,3,4-tetrahydroisoquinolin-6-yl)methyl)sulfonyl)-2-methoxyphenyl)urea], the EC50 in experiment [1] is greater than 30000 nM; in experiment [3], 14.1 nM. Further, the IC50 in experiment [2] is 12.4 nM.

The values are drawn from patent US10501479B2, “Benzenesulfonyl-asymmetric ureas and medical uses thereof” (HELSINN HEALTHCARE SA, priority 2016, dated 2019).
